Experimental data taken from ChEMBL document CHEMBL1201862, “PubChem BioAssay data set” (2004).
Activity calls are given as the source filed them.

Experiments:
[1] = target: T1, Sentrin-specific protease 8 (Homo sapiens, UniProt Q96LD8); test: inhibition of human SENP8 cleavage activity – biochemical, luminescence, SAR follow-up (AID 504501); format: functional
T1 sequence (Q96LD8 whole entry): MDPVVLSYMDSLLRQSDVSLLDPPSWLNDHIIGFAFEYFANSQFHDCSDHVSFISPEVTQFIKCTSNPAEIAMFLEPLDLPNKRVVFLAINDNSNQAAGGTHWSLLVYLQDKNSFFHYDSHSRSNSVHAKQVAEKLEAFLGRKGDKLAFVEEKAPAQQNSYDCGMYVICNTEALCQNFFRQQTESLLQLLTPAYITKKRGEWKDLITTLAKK

Caspase-3 = target: T2, Caspase-3 (Homo sapiens, UniProt P42574); test: SAR Analysis of small molecule inhibitors of Sentrin-specific proteases (SENPs) using a Caspase-3 Selectivity assay. [Related pubchem assays (depositor defined):AID2540, AID2599, AID434973, AID489001]; format: functional
T2 sequence (P42574 whole entry): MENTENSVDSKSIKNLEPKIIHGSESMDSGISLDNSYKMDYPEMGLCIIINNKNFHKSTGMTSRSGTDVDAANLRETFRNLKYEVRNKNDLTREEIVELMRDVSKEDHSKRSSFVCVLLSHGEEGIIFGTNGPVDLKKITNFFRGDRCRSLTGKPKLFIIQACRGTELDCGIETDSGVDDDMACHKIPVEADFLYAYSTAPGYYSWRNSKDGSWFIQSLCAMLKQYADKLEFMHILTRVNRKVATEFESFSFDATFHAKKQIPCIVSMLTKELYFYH

[2] = target: T3, Sentrin-specific protease 6 (Homo sapiens, UniProt Q9GZR1); test: SAR Analysis of small molecule inhibitors of Sentrin-specific protease 6 (SENP6) using a Luminescent assay. [Related pubchem assays (depositor defined):AID2582, AID2599]; format: functional
T3 sequence (Q9GZR1 whole entry): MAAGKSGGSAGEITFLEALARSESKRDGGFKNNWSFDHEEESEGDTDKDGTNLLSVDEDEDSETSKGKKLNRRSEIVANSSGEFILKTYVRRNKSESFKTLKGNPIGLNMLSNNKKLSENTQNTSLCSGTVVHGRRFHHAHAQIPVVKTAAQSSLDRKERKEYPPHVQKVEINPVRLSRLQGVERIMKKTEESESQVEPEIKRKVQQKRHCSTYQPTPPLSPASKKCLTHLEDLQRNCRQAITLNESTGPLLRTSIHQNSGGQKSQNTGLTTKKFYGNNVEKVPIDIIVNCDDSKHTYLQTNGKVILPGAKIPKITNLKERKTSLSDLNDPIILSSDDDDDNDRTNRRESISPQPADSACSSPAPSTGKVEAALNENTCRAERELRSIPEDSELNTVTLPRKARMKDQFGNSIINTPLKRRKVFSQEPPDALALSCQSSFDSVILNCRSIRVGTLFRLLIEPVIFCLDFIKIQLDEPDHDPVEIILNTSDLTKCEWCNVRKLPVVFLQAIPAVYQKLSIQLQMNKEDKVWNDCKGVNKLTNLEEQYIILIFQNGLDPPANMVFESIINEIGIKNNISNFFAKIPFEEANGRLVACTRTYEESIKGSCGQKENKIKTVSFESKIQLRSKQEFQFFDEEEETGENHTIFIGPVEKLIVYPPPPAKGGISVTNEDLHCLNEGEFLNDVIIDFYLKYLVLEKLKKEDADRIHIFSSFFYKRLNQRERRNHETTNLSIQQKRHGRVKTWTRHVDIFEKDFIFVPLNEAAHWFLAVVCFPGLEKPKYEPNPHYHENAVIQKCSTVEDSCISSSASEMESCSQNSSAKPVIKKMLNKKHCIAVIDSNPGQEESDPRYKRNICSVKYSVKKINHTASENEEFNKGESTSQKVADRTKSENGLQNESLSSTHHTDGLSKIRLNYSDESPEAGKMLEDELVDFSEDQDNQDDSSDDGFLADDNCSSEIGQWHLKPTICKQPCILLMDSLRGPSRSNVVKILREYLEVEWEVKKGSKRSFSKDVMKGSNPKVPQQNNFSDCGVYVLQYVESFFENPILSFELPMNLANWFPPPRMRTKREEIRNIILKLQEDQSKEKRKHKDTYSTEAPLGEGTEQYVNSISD

[3] = target: T4, Sentrin-specific protease 7 (Homo sapiens, UniProt Q9BQF6); test: inhibition of human SENP7 cleavage activity – biochemical, luminescence, SAR follow-up (AID 504497); format: functional
T4 sequence (Q9BQF6 whole entry): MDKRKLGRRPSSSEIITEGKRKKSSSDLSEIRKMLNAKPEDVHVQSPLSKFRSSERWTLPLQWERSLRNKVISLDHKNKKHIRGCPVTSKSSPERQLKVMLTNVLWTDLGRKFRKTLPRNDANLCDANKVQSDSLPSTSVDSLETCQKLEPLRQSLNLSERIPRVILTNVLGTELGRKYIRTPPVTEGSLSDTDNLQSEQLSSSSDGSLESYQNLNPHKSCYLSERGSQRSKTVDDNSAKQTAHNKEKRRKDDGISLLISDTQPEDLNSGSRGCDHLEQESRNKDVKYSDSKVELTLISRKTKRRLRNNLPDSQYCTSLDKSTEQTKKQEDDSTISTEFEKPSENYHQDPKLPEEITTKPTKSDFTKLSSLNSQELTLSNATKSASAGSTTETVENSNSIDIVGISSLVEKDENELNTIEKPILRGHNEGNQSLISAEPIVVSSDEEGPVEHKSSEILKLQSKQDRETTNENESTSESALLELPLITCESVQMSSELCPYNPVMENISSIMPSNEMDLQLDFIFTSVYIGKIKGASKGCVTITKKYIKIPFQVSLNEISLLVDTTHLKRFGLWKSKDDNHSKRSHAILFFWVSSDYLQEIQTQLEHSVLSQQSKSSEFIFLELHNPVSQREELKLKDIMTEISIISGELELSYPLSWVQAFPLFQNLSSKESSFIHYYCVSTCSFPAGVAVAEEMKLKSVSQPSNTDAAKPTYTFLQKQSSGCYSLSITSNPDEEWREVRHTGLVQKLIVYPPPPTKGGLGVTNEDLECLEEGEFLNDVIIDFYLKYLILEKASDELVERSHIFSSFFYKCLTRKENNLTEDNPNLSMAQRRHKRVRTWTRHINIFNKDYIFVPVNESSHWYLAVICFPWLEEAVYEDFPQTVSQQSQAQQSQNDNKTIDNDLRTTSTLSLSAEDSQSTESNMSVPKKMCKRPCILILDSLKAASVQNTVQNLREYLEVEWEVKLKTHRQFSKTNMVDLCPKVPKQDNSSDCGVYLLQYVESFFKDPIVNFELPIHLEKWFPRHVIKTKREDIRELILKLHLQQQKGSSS

[4] = target: Glycogen synthase kinase-3 alpha (Homo sapiens, UniProt P49840); test: Inhibition of Human GSK-3 alpha Activity Measured in Biochemical System Using Microfluidics - 2063-06_Inhibitor_Dose_DryPowder_Activity_Set2. [Related pubchem assays (depositor defined):AID2709]
[5] = target: Glycogen synthase kinase-3 beta (Homo sapiens, UniProt P49841); test: Inhibition of Human GSK-3 beta Activity Measured in Biochemical System Using Microfluidics - 2063-05_Inhibitor_Dose_DryPowder_Activity_Set2. [Related pubchem assays (depositor defined):AID2709]
[6] = target: Cyclin-dependent kinase 5/CDK5 activator 1 (Homo sapiens, UniProt Q00535); test: human CDK5 activity blockade – biochemical, microfluidic mobility shift, dry powder, selectivity assay for GSK-3 alpha inhibitor project, dose response (AID 588430)
[7] = target: T5, Neuropeptides B/W receptor type 1 (Homo sapiens, UniProt P48145); test: human NPBW1 receptor blockade, IC50 – cell-based, fluorescence, dose response, set 5, late-stage follow-up (AID 588566); format: functional
T5 sequence (P48145 whole entry): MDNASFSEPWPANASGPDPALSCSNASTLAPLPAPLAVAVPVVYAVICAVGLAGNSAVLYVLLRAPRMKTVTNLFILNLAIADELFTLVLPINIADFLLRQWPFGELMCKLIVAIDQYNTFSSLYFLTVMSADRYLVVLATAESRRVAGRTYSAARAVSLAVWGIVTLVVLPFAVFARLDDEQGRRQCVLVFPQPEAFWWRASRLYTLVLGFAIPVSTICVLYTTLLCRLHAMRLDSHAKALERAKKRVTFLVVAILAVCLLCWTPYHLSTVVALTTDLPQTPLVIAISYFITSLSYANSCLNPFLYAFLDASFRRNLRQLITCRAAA

[8] = target: Melanin-concentrating hormone receptor 1 (Homo sapiens, UniProt Q99705); test: Late-stage fluorescence-based counterscreen for antagonists of the G-protein coupled receptor 7 (GPR7): cell-based dose response assay to identify antagonists of the melanin-concentrating hormone receptor 1 (MCHR1) Set 5.; format: functional
[9] = viability of uninfected HEp-2 cells – cell-based, HTS, cytotoxicity control for RSV inhibitor project, dose response (AID 2410); format: functional; details: human respiratory syncytial virus
CHO-K1 = test: (§1) Counterscreen for antagonists of the orexin 1 receptor (OX1R; HCRTR1): Homogeneous time resolved fluorescence (HTRF)-based cell-based dose response assay to identify antagonists of the parental CHO-K1 cell line. [Related pubchem assays (depositor defined):AID434989, AID435008, AID463079, AID485270, AID492963, AID492964, AID492965, AID493232, AID504699, AID504701]; format: functional; details: Cricetulus griseus
[10] = as §1, with “Fluorescence-based” for “Homogeneous time resolved fluorescence (HTRF)-based”, “cell-based high throughput” for “cell-based”, “CHO” for “CHO-K1”; format: functional
[11] = target: T6, Orexin/Hypocretin receptor type 1 (Homo sapiens, UniProt O43613); test: Homogeneous Time Resolved Fluorescence (HTRF)-based cell-based high throughput dose response assay for antagonists of the orexin 1 receptor (OX1R; HCRTR1). [Related pubchem assays (depositor defined):AID434989, AID435008, AID463079, AID485270, AID492963, AID492964, AID492965, AID493232, AID504717, AID504718]; format: functional
[12] = target: T6, Orexin/Hypocretin receptor type 1; test: Fluorescence-based cell-based high throughput dose response assay for antagonists of the orexin 1 receptor (OX1R; HCRTR1). [Related pubchem assays (depositor defined):AID434989, AID435008, AID463079, AID485270, AID492963, AID492964, AID492965, AID493232, AID504717, AID504718]; format: functional
H9c2 = test: cells; format: functional, cell-based; details: Rattus norvegicus, H9c2, Myocardium;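 further: confirmatory concentration-response retest of ultra-high-throughput screening hits for modulation of myocardial damage; cell death induced by hydrogen peroxide oxidative stress; compound pretreatment for 60 min then peroxide exposure for 2 h; potency is for protecting the cells against peroxide damage rather than for killing them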
Orexin receptor type 2 [13] = target: T7, Orexin receptor type 2 (Homo sapiens, UniProt O43614); test: Counterscreen assay for antagonists of the orexin 1 receptor (OX1R; HCRTR1): Fluorescence-based cell-based dose response assay for antagonists of the orexin 2 receptor (OX2R; HCRTR2), run by assay provider.; format: functional
Orexin receptor type 2 [14] = target: T7, Orexin receptor type 2; test: Counterscreen assay for antagonists of the orexin 1 receptor (OX1R; HCRTR1): Homogeneous Time Resolved Fluorescence (HTRF)-based cell-based dose response assay for antagonists of the orexin 2 receptor (OX2R; HCRTR2), run by assay provider.; format: functional

T7 sequence (O43614 whole entry): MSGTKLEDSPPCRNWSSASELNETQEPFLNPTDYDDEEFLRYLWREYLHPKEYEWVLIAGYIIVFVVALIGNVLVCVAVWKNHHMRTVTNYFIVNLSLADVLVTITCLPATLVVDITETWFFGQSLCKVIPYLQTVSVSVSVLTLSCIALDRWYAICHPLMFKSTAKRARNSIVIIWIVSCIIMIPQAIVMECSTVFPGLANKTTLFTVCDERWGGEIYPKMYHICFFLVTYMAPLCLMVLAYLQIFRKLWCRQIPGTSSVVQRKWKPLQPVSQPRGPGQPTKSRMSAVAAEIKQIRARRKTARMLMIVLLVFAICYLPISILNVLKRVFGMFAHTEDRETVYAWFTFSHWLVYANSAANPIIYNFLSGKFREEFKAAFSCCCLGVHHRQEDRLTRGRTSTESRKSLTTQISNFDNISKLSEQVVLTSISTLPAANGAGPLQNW
T6 sequence (O43613 whole entry): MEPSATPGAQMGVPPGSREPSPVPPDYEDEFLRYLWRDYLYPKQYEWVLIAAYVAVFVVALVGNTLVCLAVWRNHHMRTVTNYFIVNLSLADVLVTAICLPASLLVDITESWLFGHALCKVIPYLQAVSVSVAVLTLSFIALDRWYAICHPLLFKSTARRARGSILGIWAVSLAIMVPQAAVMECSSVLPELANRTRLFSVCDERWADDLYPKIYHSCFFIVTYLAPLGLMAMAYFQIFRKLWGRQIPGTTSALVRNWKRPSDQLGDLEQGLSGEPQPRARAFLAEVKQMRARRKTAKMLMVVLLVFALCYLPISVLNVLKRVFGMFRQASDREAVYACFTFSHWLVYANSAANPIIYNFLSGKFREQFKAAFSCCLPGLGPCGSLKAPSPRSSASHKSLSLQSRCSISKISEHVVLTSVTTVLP
Chain of Melanin-concentrating hormone receptor 1 (Q99705 whole entry): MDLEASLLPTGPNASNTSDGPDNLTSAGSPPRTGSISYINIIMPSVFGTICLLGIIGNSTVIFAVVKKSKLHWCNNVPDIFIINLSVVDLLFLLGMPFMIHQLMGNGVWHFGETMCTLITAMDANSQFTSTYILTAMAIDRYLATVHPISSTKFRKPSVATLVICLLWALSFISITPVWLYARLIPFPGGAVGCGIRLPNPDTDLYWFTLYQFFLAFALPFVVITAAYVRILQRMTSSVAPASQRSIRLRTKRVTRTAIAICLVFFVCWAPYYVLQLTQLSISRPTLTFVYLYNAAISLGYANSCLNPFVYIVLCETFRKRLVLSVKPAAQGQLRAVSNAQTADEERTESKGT
Chain of Glycogen synthase kinase-3 alpha (P49840 whole entry): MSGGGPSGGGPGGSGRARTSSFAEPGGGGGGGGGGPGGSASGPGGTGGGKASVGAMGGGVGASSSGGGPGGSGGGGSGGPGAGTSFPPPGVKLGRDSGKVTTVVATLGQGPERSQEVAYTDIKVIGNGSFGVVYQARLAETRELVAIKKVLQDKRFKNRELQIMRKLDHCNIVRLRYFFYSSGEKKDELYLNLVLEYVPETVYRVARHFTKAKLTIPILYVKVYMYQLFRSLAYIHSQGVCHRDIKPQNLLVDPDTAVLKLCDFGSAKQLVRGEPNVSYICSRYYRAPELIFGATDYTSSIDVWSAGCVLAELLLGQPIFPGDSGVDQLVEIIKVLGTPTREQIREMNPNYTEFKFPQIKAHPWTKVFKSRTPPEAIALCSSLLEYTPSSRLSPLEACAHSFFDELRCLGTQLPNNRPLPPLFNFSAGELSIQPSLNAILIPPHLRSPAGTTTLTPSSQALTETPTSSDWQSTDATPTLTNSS
Chain of Glycogen synthase kinase-3 beta (P49841 whole entry): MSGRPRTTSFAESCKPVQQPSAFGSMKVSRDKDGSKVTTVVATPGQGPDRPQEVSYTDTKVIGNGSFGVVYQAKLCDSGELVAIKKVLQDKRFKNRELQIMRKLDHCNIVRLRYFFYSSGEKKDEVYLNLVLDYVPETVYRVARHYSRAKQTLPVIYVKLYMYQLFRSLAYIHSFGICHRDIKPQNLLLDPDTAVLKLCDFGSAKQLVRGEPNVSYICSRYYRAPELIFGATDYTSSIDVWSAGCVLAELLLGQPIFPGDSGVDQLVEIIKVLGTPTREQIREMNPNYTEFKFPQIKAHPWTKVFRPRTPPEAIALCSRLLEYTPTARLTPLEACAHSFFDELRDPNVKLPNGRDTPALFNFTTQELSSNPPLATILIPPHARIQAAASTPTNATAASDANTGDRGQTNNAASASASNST
Chain of Cyclin-dependent kinase 5/CDK5 activator 1 (Q00535 whole entry): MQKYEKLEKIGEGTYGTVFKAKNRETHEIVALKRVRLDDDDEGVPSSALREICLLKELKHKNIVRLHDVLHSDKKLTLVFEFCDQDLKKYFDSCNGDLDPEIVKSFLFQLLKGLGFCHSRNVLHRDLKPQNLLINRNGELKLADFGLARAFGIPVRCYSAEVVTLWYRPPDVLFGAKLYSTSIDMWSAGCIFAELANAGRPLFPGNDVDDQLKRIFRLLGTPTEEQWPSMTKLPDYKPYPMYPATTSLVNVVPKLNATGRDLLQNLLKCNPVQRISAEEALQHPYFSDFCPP
Chain of Cyclin-dependent kinase 5/CDK5 activator 1 (Q15078 whole entry, further chain): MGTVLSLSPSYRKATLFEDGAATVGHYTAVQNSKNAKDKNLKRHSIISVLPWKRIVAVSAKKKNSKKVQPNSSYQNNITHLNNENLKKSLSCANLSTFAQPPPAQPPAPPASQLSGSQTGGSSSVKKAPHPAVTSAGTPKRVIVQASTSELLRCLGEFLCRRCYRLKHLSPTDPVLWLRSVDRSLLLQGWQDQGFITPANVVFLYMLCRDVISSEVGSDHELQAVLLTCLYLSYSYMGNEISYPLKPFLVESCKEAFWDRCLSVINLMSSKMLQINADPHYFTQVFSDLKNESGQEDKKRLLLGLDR

Cc1ccc(NC(=O)c2ccc(OC3CSC3)cc2)cc1
inactive: IC50 [1] > 99 µM | IC50 (Caspase-3) > 99 µM | IC50 [2] > 99 µM | IC50 [3] > 99 µM

CCOc1ccccc1/C=N/NC(=O)c1nnn(-c2nonc2N)c1CN1CCC(C)CC1
active: AC50 [4] 39.2 nM | AC50 [5] < 16 nM | AC50 [6] 65 µM

COc1ccc(Oc2c(C(=O)O)cnn(Cc3cccc4ccccc34)c2=O)cc1
inactive: IC50 [7] > 20 µM | IC50 [8] > 20 µM

Cc1[nH]c2ccccc2c1C(=O)CSc1nc2ccccc2[nH]1
active: CC50 [9] > 50 µM | IC50 [11] 3.42 µM
inactive: IC50 (CHO-K1) > 66.2 µM | IC50 [10] > 49.8 µM | IC50 [12] 12.5 µM | IC50 (H9c2) 32 µM | IC50 (Orexin receptor type 2 [13]) > 88.8 µM | IC50 (Orexin receptor type 2 [14]) > 50 µM
